These results are taken from publication PMC8709211, “Improving Membrane Activity and Cargo Delivery Efficacy of a Cell-Penetrating Peptide by Loading with Carboranes” (Pharmaceutics, 2021).

The subject of series [1] is HeLa cells. The experiment in a line: Cell viability assay (resazurin). The settings on record: 37 °C, serum-free medium, 125 nM–100 µM, relative to untreated cells. The class given is cell-based. How it is done:
In total, 17.000 HeLa cells per well were seeded onto 96-well plates (Sarstedt, Nümbrecht, Germany). After confluency of 80–90% was reached, the growth medium was removed, and cells were incubated with 100 µL of peptide solution of different concentrations (125 nM–100 μM in serum-free medium) for 24 h at 37 °C. For a positive control, cells were treated with 70% EtOH for 10 min. Cells were washed with serum-free medium and incubated with 10% (v/v) resazurin (Sigma-Aldrich, Merck group: Darmstadt, Germany) in serum-free medium for 1.5 h at 37 °C. Cell viability was determined by measurement of the resorufin product at 595 nm (λex = 550 nm) on a Tecan infinite M200 plate reader (Tecan Group AG, Männedorf, Switzerland). Viability was calculated from the fluorescence values of treated cells in relation to untreated cells.

In the next series the test system is human red blood cells. The experiment in a line: Hemolysis assay. The class given is cell-based. The settings on record: human RBCs 5% (v/v in PBS), 37 °C, up to 25 µM peptide, absorption at 560 nm, normalized to Triton-x-100 control, triplicate, n = 2. How it is done:
Human red blood cells were washed five times with PBS (4 °C, 3000× g, 5 min) and diluted to 5% (v/v in PBS). In total, 100 µL of this solution were transferred into a fresh 96-well plate. In total, 50 µL of peptide solution were added and gently resuspended. Red blood cells were incubated for either 1 or 24 h at 37 °C and 5% CO2, respectively. In total, 50 µL of 10% Triton-x-100 were added 10 min prior to the end of the incubation time and served as a positive control. After incubation, cells were centrifuged (r.t., 2500× g, 3 min). The supernatant was carefully transferred into a fresh 96-well plate and the absorption at 560 nm was measured on a Tecan infinite M200 plate reader (Tecan Group AG, Männedorf, Switzerland). The measured absorption referred to the hemoglobin concentration.
Next, we incubated human red blood cells (RBCs) with different concentrations of CB-sC18 conjugates at 37 °C for 1 or 24 h, respectively. Since their cell membranes are mainly composed of neutral lipids, RBCs serve as an excellent biological model for the lytic activity of a peptide. […] For sC18, this agreed with the detected low activity when in contact with zwitterionic LUVs. […] The same activity profile was observed when incubating peptide conjugates with RBCs for only one hour (Figure S30), whereas the effects started at concentrations higher than 5 µM. […]

Series [2] relates to HeLa cells. The experiment in a line: Transfection with mCherry plasmid. The series is classed as cell-based. As to conditions: peptide:plasmid 3:1 (250 ng plasmid), 1 µM peptide, 2 h, inspected 72 h after transfection, fluorescence microscopy. How it is done:
HeLa cells were seeded into 8-well plates (ibidi, Gräfelfing, Germany, 8000 cells per well, respectively) and grown to 30–40% confluency. Peptides and mCherry plasmid were co-incubated for 1 h at 37 °C at a ratio of 3:1 in serum-free medium (mCherry plasmid: 250 ng). Afterwards, the medium was removed, and the solution was added to the cells. Additional serum-free medium was added to ensure a final peptide concentration of 1 µM. Cells were incubated for 2 h with the peptides and peptide/plasmid solution at 37 °C, respectively. As a positive control, Lipofectamine 2000 (Invitrogen, Thermo Scientific, Waltham, MA, USA) was used and as a negative control, cells were treated with plasmid only. Afterwards, a washout was performed, and cells were washed once with 150 µL of serum-free medium. In total, 300 µL of medium with serum were added and cells were grown for 72 h at 37 °C. Ten minutes prior to microscopic analysis, 0.6 µL of Hoechst33342 were added. Then, cells were washed twice with 150 µL of serum-free medium. In total, 300 µL of serum-supplemented medium were added and cells analyzed using a BZ-X800E microscope (Keyence, Osaka, Japan).

Series [3] can be described thus: Circular dichroism spectroscopy (alpha-helical content, R-value). The series is classed as physicochemical. As to conditions: for % of alpha helix, 50% TFE / % of alpha helix, Phosphate Buffer: CD, calculated per ref 31; for % of alpha helix, 50% TFE: 20 µM peptide in 10 mM phosphate buffer (pH 7.0) with 50% TFE (v/v); for R-value, 50% TFE: 20 µM peptide in 10 mM phosphate buffer (pH 7.0) with 50% TFE. How it is done: Conjugates were dissolved in 10 mM phosphate buffer (pH 7.0), either alone or supplemented with 50% TFE (v/v), to a final concentration of 20 µM. CD spectra of all conjugates were recorded from 180–260 nm (0.5 nm intervals) on a J-715 spectropolarimeter (JASCO, Pfungstadt, Germany) in an N2 atmosphere.
To find out more, we performed CD spectroscopy for all peptides solved either in phosphate buffer or in phosphate buffer supplemented with trifluoroethanol (TFE), respectively. All conjugates and sC18 adopted an alpha-helix, when present in phosphate buffer with TFE (Figure S20). On the other hand, when CB-conjugates were solved in phosphate buffer only (Figure 1C), some of them directly formed distinct secondary structures. […] Taking this observation into account, we concluded that the number of CB moieties actually promoted the formation of alpha-helical structures. This effect might be further explained by the helical wheel projection of each conjugate showing that the hydrophobic face of the peptide was clearly enlarged when three or more CB units were attached (see Figure S21). […]

Series [4] concerns HeLa cells. The experiment in a line: Proliferation assay, co-incubation with Daunorubicin. The settings on record: 2 h, washout, 72 h growth, resazurin; for Effect on cytotoxicity of Dau (co-incubation): 1 µM peptide with 100 nM or 1 µM Daunorubicin. The class given is cell-based. How it is done:
In total, 3000 HeLa cells per well were seeded onto 96-well plates (Sarstedt, Nümbrecht, Germany). When a confluency of 30–40% was reached, medium was removed and cells were incubated with peptides and Daunorubicin at different concentrations (1 µM peptide concentration and 100 nM or 1 µM Daunorubicin in serum-free medium) for 2 h at 37 °C. Afterwards, a washout was performed, and cells were washed once with 100 µL of serum-free medium. Then, 200 µL of medium with serum were added and cells were grown for 72 h at 37 °C. As a positive control, cells were treated with 70% EtOH for 10 min. Afterwards, cells were covered with 10% (v/v) resazurin (Sigma-Aldrich, Merck group: Darmstadt, Germany) in serum-free medium for 1.5 h at 37 °C. The cell viability of treated cells was determined relative to that of untreated cells by measurement of the resorufin product at 595 nm (λex = 550 nm) on a Tecan infinite M200 plate reader (Tecan Group AG, Männedorf, Switzerland). Viability was calculated from the fluorescence values of treated cells in relation to untreated cells.
Background: Resazurin is reduced to fluorescent resorufin, in cell work by metabolically active cells.

Series [5] has as its system HeLa cells. The experiment in a line: Cellular uptake by flow cytometry. The series is classed as cell-based. As to conditions: 1 µM CF-labeled peptide, serum-free medium, 37 °C; for Cellular uptake into HeLa cells, 30 min: triplicate, n = 3. How it is done: HeLa cells were seeded onto 24-well plates (Sarstedt, Nümbrecht, Germany, 100,000 cells per well, respectively). After reaching 80–90% confluency, medium was removed, and cells were incubated with 1 µM CF-labeled peptide solution in serum-free medium for either 30 min or 2 h at 37 °C. The peptide solution was removed, cells were washed twice with PBS, and trypsinized for 5 min. Detached cells were resuspended in full medium (phenol red free) and afterwards analyzed using a guava easycyte HT flow cytometer (Merck, Darmstadt, Germany).
(In general: A flow cytometer gives signals particle by particle.)

Series [6] is described as follows: CF-leakage assay, negatively charged LUVs. The settings on record: 1 µM peptide, 25 °C, 90 min; fluorescence, normalized to Triton x-100; duplicate, n = 2. How it is done: (§1) Large unilamellar vesicles (LUVs) were prepared by dissolving different lipids in CHCl3, to reach the desired compositions (lipids were purchased from Avanti Polar Lipids, Inc., Alabaster, AL, USA). To remove the solvent, the mixture was placed into a round-bottomed flask on ice and the solvent was evaporated under reduced pressure for 20 min at 40 °C and afterwards under vacuum for another 5 min. The dried lipid film was then hydrated with HKS buffer (25 mM HEPES, 150 mM KCl, pH 7.4, 10% sucrose (w/v)), supplemented with 100 mM 5(6)-carboxyfluorescein (CF), and homogenized for 5 min at 45 °C to form liposomes (final concentration: 8 mM). The resulting multilamellar vesicle dispersion underwent 10 freeze/thawing cycles and was passed 21 times through a mini extruder (0.4 µm polycarbonate treck-etch membrane; Avanti Polar Lipids, Inc., Alabaster, AL, USA). External CF was removed by size exclusion chromatography (PD10 column, GE Healthcare, Chicago, IL, USA). Peptides were added to the LUVs and the CF release was monitored by measuring the increased fluorescence intensity on a plate reader (Biotek, Winooski, VT, USA). […]
(§2) Our results thus far inspired us to investigate how the novel CB-conjugates would perform in a lipid environment. […] Both lipid systems were additionally loaded with CF in order to monitor membrane leakage via fluorescence dye outflow.

A short description of series [7]: CF-leakage assay, zwitterionic LUVs. The settings on record: 1 µM peptide, 25 °C, 90 min; fluorescence, normalized to Triton x-100; duplicate, n = 2. How it is done: as §1, §2
The nature of series [8]: Critical micelle concentration (CMC) determination by UV-VIS. The settings on record: peptide in water, 1–200 µM; UV absorbance at 255 nm plotted against logarithm of peptide concentration, intersection point of two lines. The class given is physicochemical. How it is done: Peptide conjugates were dissolved in water and different concentrations (1–200 µM) were prepared. UV-VIS spectra ranging from 200–700 nm were recorded using a 1 cm path length quartz cuvette in a Spectroquant Pharo 300 photometer (Merck, Darmstadt, Germany). The absorbance at 255 nm was plotted against the logarithm of the peptide concentration. The intersection point of two lines was determined as CMC.
Since this effect was obviously dependent on the hydrophobic nature of the conjugates, we were then interested in whether they would also self-assemble and form nanostructures, such as micelles or fibrils. An easy to apply and fast method makes use of changes in spectroscopic properties associated with micelle formation. For this, one measures the UV absorbance at a specific wavelength as a function of the concentration. Because aggregates like micelles and free molecule species contribute to a different extent to the absorbed UV light, an abrupt change of the slope occurs above a certain point. The corresponding concentration is defined as the critical micelle concentration (CMC). We measured the UV-VIS spectra of all CB-sC18 conjugates and observed for all an additional concentration-dependent maximum at 255 nm (Figure 1A,B and Table 2), whereas this maximum was not detected for meta-carborane-1-carboxylic acid (Figure S14) or sC18 alone (Figure S15).
Thus, we hypothesized this maximum as evidence for a possible self-assembly, and by plotting the absorbance at 255 nm against the logarithm of the peptide concentration, we assigned the intersection point as CMC.

Where [9] appears, read: 20 µM peptide in 10 mM phosphate buffer (pH 7.0).
Setting [10] is: ratio between the molar ellipticity values at 222 and 208 nm.

On to “K-GLRKRLRKFRNKIKEK [CB1-sC18, sC18 conjugate bearing one meta-carborane (CB) cluster]”, for which the “Cytotoxicity towards HeLa cells, 24 h” value in the series on HeLa cells [1] was “lowest cytotoxic effect”. For the same substance, the “Hemolytic activity towards RBCs, 24 h” value in the series with human red blood cells was “did not exhibit any effect”. Besides, the “mCherry pDNA transfection (red fluorescent signal)” value in the series on HeLa cells [2] is “only a weak red signal”. Moreover, the “% of alpha helix, 50% TFE” value in series [3] is 50.68%. For the same substance, in series [3] (setting [9]), the “% of alpha helix, Phosphate Buffer” value is 5.02%. The “R-value, 50% TFE” value in series [3] (setting [10]) is recorded as 0.85. In addition, the “Effect on cytotoxicity of Dau (co-incubation)” value in the series with HeLa cells [4] is on record as “did not alter the cytotoxicity of Dau”. Moreover, the “Cellular uptake into HeLa cells, 30 min” value in the series on HeLa cells [5] is reported as “internalized nearly to the same extent”.
In the case of “KKKK-GLRKRLRKFRNKIKEK [CB4-sC18, sC18 conjugate bearing four meta-carborane clusters]”, in the series with HeLa cells [2], the “mCherry pDNA transfection (red fluorescent signal)” value is “strong red intracellular signals”. Besides, the “% of alpha helix, 50% TFE” value in series [3] is 56.30%. Also, the “% of alpha helix, Phosphate Buffer” value in series [3] (setting [9]) is on record as 21.68%. Further, in series [3] (ratio between the molar ellipticity values at 222 and 208 nm, 20 µM peptide in 10 mM phosphate buffer (pH 7.0)), the “R-value, Phosphate Buffer” value is recorded as 0.73. The “R-value, 50% TFE” value in [3] (setting [10]) is recorded as 0.98. Besides, in series [6], the “CF release (leakage) from negatively charged LUVs” value was “highest leakage rate”. The “CF release (leakage) from zwitterionic LUVs” value in series [7] is “highest leakage rate towards both tested model systems”. The substance also had a CMC in series [8] of 43.45 ± 1.15 µM. In addition, the “Effect on daunorubicin activity at 100 nM Dau” value in the series on HeLa cells [4] (1 µM peptide with 100 nM Dau) was “slightly increased”. Moreover, the “Effect on cytotoxicity of Dau (co-incubation)” value in the series on HeLa cells [4] is “did not alter the cytotoxicity of Dau”. Further, the “Cellular uptake into HeLa cells, 30 min” value with HeLa cells [5] is listed as “highest”. Moreover, the “Cellular uptake into HeLa cells, 2 h” value in the series with HeLa cells [5] (2 h) is given as “internalized the most”.
